“Also recorded” adds a separate entry of the source. Like-named read-outs stand apart in the source and are kept apart here.

In this assay the target is PSMA (Homo sapiens, UniProt Q04609). The assay is described as follows: Measurement of binding capacity: competition with [^125I]30 on 22RV1 cells. More on the design: host or cells: 22RV1 human prostate cancer cells. How it is done:
To confirm the binding capacity of the compounds of the present invention to PSMA, the following experiment was performed.
RPMI1640 supplemented with 1% BSA (bovine serum albumin) was used as a buffer solution.
[^125I]30 (0.1 nM) obtained in Comparative Example 1 was added to a vessel containing 22RV1 cells (5×10^4), to which the compound represented by formula 1 was loaded at 9 concentrations (1.00×10^−4˜1.00×10^−12 M), followed by stirring at 37° C. for 2 hours. Upon completion of the stirring, the vessel was washed with PBS solution (2 mL) three times, and then the radioactivity was measured using a gamma counter (2480 WIZARD2 Gamma Counter PerkinElmer Co., MA). The 50% inhibition concentration (IC50) for each compound was calculated using a GraphPad Prism program (GraphPad Software, Inc., CA)
(Maresca, K. P. et al., 2009, J. Med. Chem. 52, 347-357)

Setting [1] is: 22RV1 cells, [^125I]30 0.1 nM, 37° C., 2 hours, read-out: IC50.
Setting [2] is: 22RV1 cells, [^125I]30 0.1 nM, 37° C., 2 hours, read-out: Ki value.

Chain of PSMA (Q04609 whole entry): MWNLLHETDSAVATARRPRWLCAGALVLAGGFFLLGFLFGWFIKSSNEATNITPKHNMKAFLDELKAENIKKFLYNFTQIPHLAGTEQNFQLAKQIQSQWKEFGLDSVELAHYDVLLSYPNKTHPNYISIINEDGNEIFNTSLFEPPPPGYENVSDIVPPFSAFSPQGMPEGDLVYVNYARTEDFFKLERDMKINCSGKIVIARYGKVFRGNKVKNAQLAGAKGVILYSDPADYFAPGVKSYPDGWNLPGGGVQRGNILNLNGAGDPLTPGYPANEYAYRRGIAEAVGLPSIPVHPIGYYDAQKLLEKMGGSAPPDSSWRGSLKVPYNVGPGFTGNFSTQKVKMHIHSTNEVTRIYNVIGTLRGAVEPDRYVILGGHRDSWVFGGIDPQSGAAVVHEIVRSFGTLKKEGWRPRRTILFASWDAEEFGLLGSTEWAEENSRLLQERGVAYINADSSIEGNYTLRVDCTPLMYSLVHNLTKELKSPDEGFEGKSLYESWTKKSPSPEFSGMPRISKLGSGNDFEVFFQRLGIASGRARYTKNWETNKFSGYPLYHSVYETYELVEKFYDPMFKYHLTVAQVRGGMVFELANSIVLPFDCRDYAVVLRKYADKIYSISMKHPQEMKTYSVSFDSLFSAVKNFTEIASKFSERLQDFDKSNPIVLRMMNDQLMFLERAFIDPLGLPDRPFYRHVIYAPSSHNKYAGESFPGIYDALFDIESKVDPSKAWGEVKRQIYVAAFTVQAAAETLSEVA

For `O=C(O)CC[C@H](NC(=O)N[C@@H](CCCCNC(=O)NCc1cn(CCOCCNC(=O)CN2CCN3CCN4CCN(CC2)CC(=O)[O][Ga]([O]C(=O)C3)[O]C(=O)C4)nn1)C(=O)O)C(=O)O` [Ga-1a], the “binding force / binding capacity to PSMA, in words” value (from here on “binding force / binding capacity”) (22RV1 cells) is “relatively low binding force to PSMA”. Under setting [1], the IC50 was found to be 571 ± 136 nM. Under setting [2], the Ki was determined as 69.9 ± 29.8 nM. The “binding force to PSMA, times higher than that of Ga-1a” value (compared with Ga-1a) was “about 18.6 times”.
For the compound `O=C(O)CC[C@H](NC(=O)N[C@@H](CCCCNC(=O)N(Cc1cn(CCOCCNC(=O)CN2CCN3CCN4CCN(CC2)CC(=O)[O][Ga]([O]C(=O)C3)[O]C(=O)C4)nn1)c1ccncc1)C(=O)O)C(=O)O` [Ga-1b], the IC50 under setting [1] was determined as 237 ± 47.1 nM. Under setting [2], the Ki was 18.7 ± 1.87 nM.
For the compound `O=C(O)CC[C@H](NC(=O)N[C@@H](CCCCN(CC(=O)O)C(=O)CCc1cn(CCOCCNC(=O)CN2CCN3CCN4CCN(CC2)CC(=O)[O][Ga]([O]C(=O)C3)[O]C(=O)C4)nn1)C(=O)O)C(=O)O` [Ga-1c], the IC50 under setting [1] worked out at 21.2 ± 2.06 nM. For the same compound, the Ki under setting [2] came to 3.76 ± 0.37 nM.
The matching figures for `O=C(O)CC[C@H](NC(=O)N[C@@H](CCCCN(CCC(=O)O)C(=O)CCc1cn(CCOCCNC(=O)CN2CCN3CCN4CCN(CC2)CC(=O)[O][Ga]([O]C(=O)C3)[O]C(=O)C4)nn1)C(=O)O)C(=O)O` [Ga-1d]: 75.3 ± 18.6 nM and 18.6 ± 4.6 nM.
The matching figures for `O=C(O)CCC(NC(=O)NC(CCCCN(CC(=O)O)C(=O)COCCOCCNC(=O)CN1CCN2CCN3CCN(CC1)CC(=O)[O][Ga]([O]C(=O)C2)[O]C(=O)C3)C(=O)O)C(=O)O` (centres unmarked) [Ga-1e]: 47.4 ± 1.78 nM and 12.9 ± 0.49 nM.
For the compound `O=C(O)CC[C@H](NC(=O)N[C@@H](CCCCN(CC(=O)O)C(=O)COCCOCCNC(=O)[C@H](CCCCNC(=O)CCCc1ccccc1)NC(=O)CN1CCN2CCN3CCN(CC1)CC(=O)[O][Ga]([O]C(=O)C2)[O]C(=O)C3)C(=O)O)C(=O)O` [Ga-1f], where the note is “22RV1 cells”, the “binding force / binding capacity” value is listed as “higher binding capacity than the compound Ga-1e”. Also, the 50% inhibitory concentration (IC50) under setting [1] worked out at 25.7 ± 5.06 nM. Also, the Ki under setting [2] came to 8.12 ± 1.6 nM.
Regarding `Cc1ccc(CCCC(=O)NCCCC[C@H](NC(=O)CN2CCN3CCN4CCN(CC2)CC(=O)[O][Ga]([O]C(=O)C3)[O]C(=O)C4)C(=O)NCCOCCOCC(=O)N(CCCC[C@H](NC(=O)N[C@@H](CCC(=O)O)C(=O)O)C(=O)O)CC(=O)O)cc1` [Ga-1g], under “22RV1 cells”, the “binding force / binding capacity” value is on record as “higher binding capacity than the compound Ga-1e”. Under setting [1], the IC50 turned out to be 18.4 ± 0.35 nM. The inhibition constant Ki under setting [2] worked out at 5.82 ± 0.11 nM.
`O=C(O)CCC(NC(=O)NC(CCCCN(CC(=O)O)C(=O)COCCOCCNC(=O)C(CCCCNC(=O)CCCc1ccc(I)cc1)NC(=O)CN1CCN2CCN3CCN(CC1)CC(=O)[O][Ga]([O]C(=O)C2)[O]C(=O)C3)C(=O)O)C(=O)O` (centres unmarked) [Ga-1h]: the IC50 is 11 ± 0.35 nM and the Ki came out at 3 ± 0.1 nM. Also, where the note is “22RV1 cells”, the “binding force / binding capacity” value is “higher binding capacity than the compound Ga-1e; also recorded: highest binding capacity”.
Consider `O=C(O)CC[C@H](NC(=O)N[C@@H](CCCCN(CC(=O)O)C(=O)COCCNC(=O)CN1CCN2CCN3CCN(CC1)CC(=O)[O][Ga]([O]C(=O)C2)[O]C(=O)C3)C(=O)O)C(=O)O` [Ga-1i], for which the IC50 under setting [1] was 69 ± 3.27 nM. Moreover, the Ki under setting [2] was found to be 14.4 ± 0.68 nM.
For `O=C(O)CC[C@H](NC(=O)N[C@@H](CCCCN(CC(=O)O)C(=O)COCCNC(=O)[C@H](CCCCNC(=O)CCCc1ccc(I)cc1)NC(=O)CN1CCN2CCN3CCN(CC1)CC(=O)[O][Ga]([O]C(=O)C2)[O]C(=O)C3)C(=O)O)C(=O)O` [Ga-1k], in that order: 63.9 ± 6.09 nM and 12.7 ± 1.07 nM.
Regarding `O=C(O)CC[C@H](NC(=O)N[C@@H](CCC(=O)N(CCOCCOCCNC(=O)CN1CCN2CCN3CCN(CC1)CC(=O)[O][Ga]([O]C(=O)C2)[O]C(=O)C3)CC(=O)O)C(=O)O)C(=O)O` [Ga-1n], the IC50 under setting [1] is 174 ± 3.87 nM. The Ki under setting [2] turned out to be 32.1 ± 0.71 nM.
The matching figures for `O=C(O)CC[C@H](NC(=O)N[C@@H](CCC(=O)N(CCOCCOCCNC(=O)CN1CCN2CCN3CCN(CC1)CC(=O)[O][Ga]([O]C(=O)C2)[O]C(=O)C3)CCC(=O)O)C(=O)O)C(=O)O` [Ga-1o]: 1140 ± 82.4 nM and 282 ± 20.4 nM.

The values are drawn from patent US11931431B2, “PSMA-targeted radiopharmaceutical for diagnosing and treating prostate cancer” (FUTURECHEM CO., LTD, priority 2018, dated 2024).
